Assay results reported in ChEMBL document CHEMBL3991601, “The target landscape of clinical kinase drugs” (Science, 2017).
The source made the active and inactive calls.

Experiments:
[1] = biological target: Serine/threonine-protein kinase B-raf (Homo sapiens, UniProt P15056)
[2] = biological target: Cyclin-dependent kinase 4 (Homo sapiens, UniProt P11802)
Ephrin type-B receptor 3 = biological target: T1, Ephrin type-B receptor 3 (Homo sapiens, UniProt P54753)
T1 sequence (P54753 whole entry): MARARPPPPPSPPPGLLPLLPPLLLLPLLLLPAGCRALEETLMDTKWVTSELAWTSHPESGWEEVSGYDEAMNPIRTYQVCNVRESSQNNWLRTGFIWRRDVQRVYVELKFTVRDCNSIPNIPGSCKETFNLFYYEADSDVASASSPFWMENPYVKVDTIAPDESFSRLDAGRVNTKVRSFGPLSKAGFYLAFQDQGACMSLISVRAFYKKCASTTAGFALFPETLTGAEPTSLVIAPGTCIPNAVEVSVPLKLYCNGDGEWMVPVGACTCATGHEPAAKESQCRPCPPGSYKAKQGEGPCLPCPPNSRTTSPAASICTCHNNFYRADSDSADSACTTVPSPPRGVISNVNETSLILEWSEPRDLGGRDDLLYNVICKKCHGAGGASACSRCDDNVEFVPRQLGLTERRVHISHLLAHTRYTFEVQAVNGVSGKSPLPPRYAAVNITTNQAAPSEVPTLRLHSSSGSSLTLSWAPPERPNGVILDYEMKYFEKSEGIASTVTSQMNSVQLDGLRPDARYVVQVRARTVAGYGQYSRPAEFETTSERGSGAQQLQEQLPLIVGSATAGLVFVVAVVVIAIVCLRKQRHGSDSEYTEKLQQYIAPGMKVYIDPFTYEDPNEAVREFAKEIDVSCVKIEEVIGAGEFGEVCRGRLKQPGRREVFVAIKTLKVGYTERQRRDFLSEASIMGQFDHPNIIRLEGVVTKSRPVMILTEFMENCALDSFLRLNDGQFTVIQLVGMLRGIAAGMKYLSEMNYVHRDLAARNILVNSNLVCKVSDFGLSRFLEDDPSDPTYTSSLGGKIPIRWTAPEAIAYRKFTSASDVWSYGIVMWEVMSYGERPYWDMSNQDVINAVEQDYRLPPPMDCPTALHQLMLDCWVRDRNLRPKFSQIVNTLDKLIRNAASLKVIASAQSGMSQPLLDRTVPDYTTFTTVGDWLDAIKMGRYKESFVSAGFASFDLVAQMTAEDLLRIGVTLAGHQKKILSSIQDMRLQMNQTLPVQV

[3] = biological target: Mitogen-activated protein kinase 7 (Homo sapiens, UniProt Q13164)
Sequence of Mitogen-activated protein kinase 7 (Q13164 whole entry): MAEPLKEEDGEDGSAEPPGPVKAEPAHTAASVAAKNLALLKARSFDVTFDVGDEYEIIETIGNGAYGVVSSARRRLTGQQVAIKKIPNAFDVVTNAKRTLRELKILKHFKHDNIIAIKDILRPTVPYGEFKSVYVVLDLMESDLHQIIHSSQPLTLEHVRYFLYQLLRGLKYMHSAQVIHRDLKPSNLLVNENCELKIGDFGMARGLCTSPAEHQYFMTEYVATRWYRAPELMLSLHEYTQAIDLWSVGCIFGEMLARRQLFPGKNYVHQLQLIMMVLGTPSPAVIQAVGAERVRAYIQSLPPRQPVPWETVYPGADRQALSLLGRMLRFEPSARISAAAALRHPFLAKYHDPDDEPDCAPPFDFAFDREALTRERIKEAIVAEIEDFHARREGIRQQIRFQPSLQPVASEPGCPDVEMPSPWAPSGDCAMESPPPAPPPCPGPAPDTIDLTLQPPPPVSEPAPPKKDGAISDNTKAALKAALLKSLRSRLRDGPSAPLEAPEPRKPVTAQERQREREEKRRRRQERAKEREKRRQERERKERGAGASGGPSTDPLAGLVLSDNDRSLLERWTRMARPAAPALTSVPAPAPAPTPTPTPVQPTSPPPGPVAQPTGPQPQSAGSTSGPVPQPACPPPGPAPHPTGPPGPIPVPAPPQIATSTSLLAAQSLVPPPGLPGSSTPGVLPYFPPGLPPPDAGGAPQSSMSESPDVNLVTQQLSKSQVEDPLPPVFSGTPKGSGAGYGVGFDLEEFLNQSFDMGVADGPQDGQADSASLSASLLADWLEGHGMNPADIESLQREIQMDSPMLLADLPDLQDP

[4] = biological target: Mitogen-activated protein kinase 9 (Homo sapiens, UniProt P45984)
Sequence of Mitogen-activated protein kinase 9 (P45984 whole entry): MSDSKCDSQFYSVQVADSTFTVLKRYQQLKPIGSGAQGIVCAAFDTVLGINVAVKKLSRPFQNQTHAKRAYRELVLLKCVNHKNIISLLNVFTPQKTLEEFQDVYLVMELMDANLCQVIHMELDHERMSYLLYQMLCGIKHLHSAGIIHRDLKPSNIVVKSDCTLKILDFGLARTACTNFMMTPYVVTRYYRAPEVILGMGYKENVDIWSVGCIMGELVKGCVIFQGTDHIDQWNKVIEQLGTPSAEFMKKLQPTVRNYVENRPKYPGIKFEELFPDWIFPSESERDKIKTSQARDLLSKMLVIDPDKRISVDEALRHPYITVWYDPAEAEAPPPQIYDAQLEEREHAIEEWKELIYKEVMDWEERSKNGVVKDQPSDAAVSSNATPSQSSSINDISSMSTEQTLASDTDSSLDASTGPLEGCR

[5] = biological target: Serine/threonine-protein kinase PAK 2 (Homo sapiens, UniProt Q13177)
Sequence of Serine/threonine-protein kinase PAK 2 (Q13177 whole entry): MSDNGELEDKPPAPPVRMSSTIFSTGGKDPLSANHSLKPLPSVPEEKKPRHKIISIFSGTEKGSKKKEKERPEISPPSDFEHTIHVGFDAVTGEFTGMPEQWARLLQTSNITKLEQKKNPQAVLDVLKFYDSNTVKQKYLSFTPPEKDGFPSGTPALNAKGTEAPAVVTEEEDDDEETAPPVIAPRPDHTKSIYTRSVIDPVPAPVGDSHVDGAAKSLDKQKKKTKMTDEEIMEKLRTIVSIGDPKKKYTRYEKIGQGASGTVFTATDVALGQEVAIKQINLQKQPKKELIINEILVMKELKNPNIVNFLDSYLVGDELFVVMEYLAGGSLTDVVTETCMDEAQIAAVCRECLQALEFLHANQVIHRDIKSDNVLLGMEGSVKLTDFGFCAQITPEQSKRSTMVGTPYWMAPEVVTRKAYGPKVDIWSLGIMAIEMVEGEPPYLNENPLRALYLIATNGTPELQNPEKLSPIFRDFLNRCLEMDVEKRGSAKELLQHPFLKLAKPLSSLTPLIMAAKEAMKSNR

[6] = biological target: Serine/threonine-protein kinase pim-1 (Homo sapiens, UniProt P11309)
Sequence of Serine/threonine-protein kinase pim-1 (P11309 whole entry): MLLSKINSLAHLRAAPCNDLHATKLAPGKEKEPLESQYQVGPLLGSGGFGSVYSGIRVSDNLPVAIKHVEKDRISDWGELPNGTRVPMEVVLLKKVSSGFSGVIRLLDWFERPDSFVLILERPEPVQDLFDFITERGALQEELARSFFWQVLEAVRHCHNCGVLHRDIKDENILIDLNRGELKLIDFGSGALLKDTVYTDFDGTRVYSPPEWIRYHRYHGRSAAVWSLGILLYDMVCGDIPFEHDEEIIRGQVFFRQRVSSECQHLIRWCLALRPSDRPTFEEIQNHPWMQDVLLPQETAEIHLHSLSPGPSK

[7] = biological target: T2, Phosphatidylinositol 5-phosphate 4-kinase type-2 gamma (Homo sapiens, UniProt Q8TBX8)
T2 sequence (Q8TBX8 whole entry): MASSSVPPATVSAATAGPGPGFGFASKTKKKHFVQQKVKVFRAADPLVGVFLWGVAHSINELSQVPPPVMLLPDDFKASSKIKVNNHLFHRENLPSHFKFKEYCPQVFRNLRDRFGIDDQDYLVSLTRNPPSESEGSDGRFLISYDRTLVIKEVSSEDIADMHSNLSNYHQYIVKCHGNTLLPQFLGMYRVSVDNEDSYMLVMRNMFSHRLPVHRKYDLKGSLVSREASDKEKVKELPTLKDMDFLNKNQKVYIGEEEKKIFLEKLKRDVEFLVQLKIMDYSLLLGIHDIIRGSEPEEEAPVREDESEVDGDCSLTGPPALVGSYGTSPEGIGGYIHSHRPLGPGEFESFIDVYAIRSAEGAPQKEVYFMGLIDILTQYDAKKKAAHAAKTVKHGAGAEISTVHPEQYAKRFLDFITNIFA

[8] = biological target: cAMP-dependent protein kinase catalytic subunit alpha (Homo sapiens, UniProt P17612)
[9] = biological target: GTP-binding nuclear protein Ran (Homo sapiens, UniProt P62826)
[10] = biological target: T3, Serine/threonine-protein kinase ULK1 (Homo sapiens, UniProt O75385)
T3 sequence (O75385 whole entry): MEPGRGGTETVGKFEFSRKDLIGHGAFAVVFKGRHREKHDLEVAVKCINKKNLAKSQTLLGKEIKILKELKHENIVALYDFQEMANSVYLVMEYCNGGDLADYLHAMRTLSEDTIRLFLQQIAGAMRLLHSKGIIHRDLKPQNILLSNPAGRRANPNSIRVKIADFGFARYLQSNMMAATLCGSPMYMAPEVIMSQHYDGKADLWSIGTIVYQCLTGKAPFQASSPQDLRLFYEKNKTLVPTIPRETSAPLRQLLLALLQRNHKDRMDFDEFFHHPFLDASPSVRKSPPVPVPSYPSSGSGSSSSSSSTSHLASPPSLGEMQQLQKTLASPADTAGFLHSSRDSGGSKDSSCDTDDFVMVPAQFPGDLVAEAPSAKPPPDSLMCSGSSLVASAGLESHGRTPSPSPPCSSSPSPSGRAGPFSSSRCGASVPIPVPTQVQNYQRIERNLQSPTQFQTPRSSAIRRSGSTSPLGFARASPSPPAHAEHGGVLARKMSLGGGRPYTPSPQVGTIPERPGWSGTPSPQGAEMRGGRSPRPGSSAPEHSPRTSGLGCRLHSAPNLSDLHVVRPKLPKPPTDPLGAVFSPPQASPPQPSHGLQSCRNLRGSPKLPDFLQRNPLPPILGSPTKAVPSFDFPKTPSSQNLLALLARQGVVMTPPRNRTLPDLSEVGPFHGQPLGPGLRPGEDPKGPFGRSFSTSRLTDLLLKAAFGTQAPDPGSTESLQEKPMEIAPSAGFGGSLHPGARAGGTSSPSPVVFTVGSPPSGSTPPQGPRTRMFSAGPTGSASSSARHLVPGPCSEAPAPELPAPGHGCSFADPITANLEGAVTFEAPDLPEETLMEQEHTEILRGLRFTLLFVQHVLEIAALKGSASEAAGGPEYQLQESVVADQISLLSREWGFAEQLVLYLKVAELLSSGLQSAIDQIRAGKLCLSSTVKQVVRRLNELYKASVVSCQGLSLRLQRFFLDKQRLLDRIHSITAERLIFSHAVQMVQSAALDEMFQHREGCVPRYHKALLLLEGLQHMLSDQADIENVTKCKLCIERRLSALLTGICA

[11] = biological target: Tyrosine-protein kinase Yes (Homo sapiens, UniProt P07947)
Sequence of Tyrosine-protein kinase Yes (P07947 whole entry): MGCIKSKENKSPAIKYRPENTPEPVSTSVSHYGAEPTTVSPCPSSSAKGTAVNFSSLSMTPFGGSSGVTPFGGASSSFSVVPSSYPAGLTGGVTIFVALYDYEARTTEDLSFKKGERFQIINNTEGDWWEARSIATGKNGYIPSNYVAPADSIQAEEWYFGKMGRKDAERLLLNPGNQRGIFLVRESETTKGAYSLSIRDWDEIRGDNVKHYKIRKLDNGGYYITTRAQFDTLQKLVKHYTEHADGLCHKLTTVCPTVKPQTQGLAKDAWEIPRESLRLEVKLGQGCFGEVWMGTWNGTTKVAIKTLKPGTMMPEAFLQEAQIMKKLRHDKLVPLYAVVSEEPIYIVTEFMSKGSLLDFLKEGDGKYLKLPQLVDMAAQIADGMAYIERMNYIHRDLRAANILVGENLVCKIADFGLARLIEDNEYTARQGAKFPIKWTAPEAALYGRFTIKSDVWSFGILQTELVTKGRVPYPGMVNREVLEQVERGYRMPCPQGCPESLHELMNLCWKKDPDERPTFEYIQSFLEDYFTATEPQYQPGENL
Also: in the data inactive means no Kd found up to 30 µM.

Sequence of Serine/threonine-protein kinase B-raf (P15056 whole entry): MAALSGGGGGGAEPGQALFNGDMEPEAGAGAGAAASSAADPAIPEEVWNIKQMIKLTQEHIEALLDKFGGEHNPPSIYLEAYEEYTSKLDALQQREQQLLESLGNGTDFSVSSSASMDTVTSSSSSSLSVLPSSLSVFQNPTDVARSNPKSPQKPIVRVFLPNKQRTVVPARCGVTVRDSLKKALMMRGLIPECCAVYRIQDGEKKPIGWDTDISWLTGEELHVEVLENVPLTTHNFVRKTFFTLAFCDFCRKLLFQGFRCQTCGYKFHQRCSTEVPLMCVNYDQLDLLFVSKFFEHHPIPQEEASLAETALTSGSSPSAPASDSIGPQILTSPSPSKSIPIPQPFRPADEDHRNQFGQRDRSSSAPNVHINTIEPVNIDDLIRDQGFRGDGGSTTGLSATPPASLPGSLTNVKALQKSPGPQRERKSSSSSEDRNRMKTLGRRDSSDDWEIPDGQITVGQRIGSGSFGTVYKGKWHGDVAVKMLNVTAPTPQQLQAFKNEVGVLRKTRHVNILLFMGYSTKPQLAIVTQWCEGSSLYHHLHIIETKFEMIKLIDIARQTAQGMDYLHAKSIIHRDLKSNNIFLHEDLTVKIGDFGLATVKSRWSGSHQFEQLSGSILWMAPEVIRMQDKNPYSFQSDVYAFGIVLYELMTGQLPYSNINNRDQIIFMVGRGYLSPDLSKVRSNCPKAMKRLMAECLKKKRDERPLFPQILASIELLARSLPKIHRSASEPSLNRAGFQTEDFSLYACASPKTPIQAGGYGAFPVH
Sequence of Cyclin-dependent kinase 4 (P11802 whole entry): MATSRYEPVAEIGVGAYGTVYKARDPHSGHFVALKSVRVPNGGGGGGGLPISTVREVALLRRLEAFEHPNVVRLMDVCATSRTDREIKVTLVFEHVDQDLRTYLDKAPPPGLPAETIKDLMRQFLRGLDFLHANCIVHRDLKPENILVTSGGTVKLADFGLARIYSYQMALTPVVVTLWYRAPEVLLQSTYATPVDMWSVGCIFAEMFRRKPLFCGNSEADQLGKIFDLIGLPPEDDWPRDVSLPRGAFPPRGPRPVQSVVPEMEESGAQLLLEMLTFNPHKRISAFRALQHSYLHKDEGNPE

SMILES | Kd [1] | Kd [2] | Kd (Ephrin type-B receptor 3) | Kd [3] | Kd [4] | Kd [5] | Kd [6] | Kd [7] | Kd [8] | Kd [9] | Kd [10] | Kd [11]
c1cc(OCCN2CCCCC2)cc(-c2n[nH]c3ccc(-c4nc[nH]n4)cc23)c1 [CC-401] | > 30 µM (inactive) | > 30 µM (inactive) | > 30 µM (inactive) | > 30 µM (inactive) | 0.34 µM (active) | > 30 µM (inactive) | > 30 µM (inactive) | > 30 µM (inactive) | > 30 µM (inactive) | > 30 µM (inactive) | > 30 µM (inactive) | > 30 µM (inactive)
CC1(COc2ccc3c(c2)ncn3-c2ccc3cccc(N4CCC(N)CC4)c3n2)COC1 [CRENOLANIB] | > 30 µM (inactive) | > 30 µM (inactive) | > 30 µM (inactive) | > 30 µM (inactive) | > 30 µM (inactive) | > 30 µM (inactive) | > 30 µM (inactive) | > 30 µM (inactive) | > 30 µM (inactive) | > 30 µM (inactive) | 0.839 µM (active) | > 30 µM (inactive)
CC[C@@](C)(Nc1ccnc(-c2c[nH]c3ncccc23)n1)C(=O)NCC(F)(F)F [DECERNOTINIB] | > 30 µM (inactive) | > 30 µM (inactive) | > 30 µM (inactive) | > 30 µM (inactive) | > 30 µM (inactive) | > 30 µM (inactive) | > 30 µM (inactive) | > 30 µM (inactive) | > 30 µM (inactive) | > 30 µM (inactive) | > 30 µM (inactive) | > 30 µM (inactive)
CNC(=O)c1ccc(Nc2ncc(C(F)(F)F)c(NCc3nccnc3N(C)S(C)(=O)=O)n2)cc1 [DEFACTINIB] | > 30 µM (inactive) | > 30 µM (inactive) | > 30 µM (inactive) | > 30 µM (inactive) | > 30 µM (inactive) | > 30 µM (inactive) | > 30 µM (inactive) | > 30 µM (inactive) | > 30 µM (inactive) | > 30 µM (inactive) | > 30 µM (inactive) | > 30 µM (inactive)
C#Cc1cccc(Nc2ncnc3cc4c(cc23)OCCOCCOCCO4)c1 [ICOTINIB] | > 30 µM (inactive) | > 30 µM (inactive) | > 30 µM (inactive) | > 30 µM (inactive) | > 30 µM (inactive) | > 30 µM (inactive) | > 30 µM (inactive) | 4.66 µM (active) | > 30 µM (inactive) | > 30 µM (inactive) | > 30 µM (inactive) | > 30 µM (inactive)
COc1cccc2cc(-c3nc([C@H]4CC[C@H](C(=O)O)CC4)n4ncnc(N)c34)[nH]c12 [OSI-027] | > 30 µM (inactive) | > 30 µM (inactive) | > 30 µM (inactive) | > 30 µM (inactive) | > 30 µM (inactive) | > 30 µM (inactive) | > 30 µM (inactive) | 4.97 µM | > 30 µM (inactive) | > 30 µM (inactive) | > 30 µM (inactive) | > 30 µM (inactive)
C=CC(=O)Nc1cc(Nc2nccc(-c3cn(C)c4ccccc34)n2)c(OC)cc1N(C)CCN(C)C [OSIMERTINIB] | > 30 µM (inactive) | > 30 µM (inactive) | > 30 µM (inactive) | > 30 µM (inactive) | > 30 µM (inactive) | > 30 µM (inactive) | > 30 µM (inactive) | 2.97 µM (active) | > 30 µM (inactive) | > 30 µM (inactive) | > 30 µM (inactive) | > 30 µM (inactive)
CC(C)CC(=O)Nc1[nH]nc2c1CN(C(=O)C1CCN(C)CC1)C2(C)C [PHA-793887] | > 30 µM (inactive) | > 30 µM (inactive) | > 30 µM (inactive) | > 30 µM (inactive) | > 30 µM (inactive) | > 30 µM (inactive) | > 30 µM (inactive) | > 30 µM (inactive) | > 30 µM (inactive) | > 30 µM (inactive) | 0.838 µM | > 30 µM (inactive)
O=C(NC[C@H](O)CO)c1ccncc1Nc1ccc(I)cc1F [PIMASERTIB] | > 30 µM (inactive) | > 30 µM (inactive) | > 30 µM (inactive) | > 30 µM (inactive) | > 30 µM (inactive) | > 30 µM (inactive) | > 30 µM (inactive) | > 30 µM (inactive) | > 30 µM (inactive) | > 30 µM (inactive) | > 30 µM (inactive) | > 30 µM (inactive)
COc1cc(F)c(F)c(Nc2ccc(I)cc2F)c1NS(=O)(=O)C1(C[C@H](O)CO)CC1 [REFAMETINIB] | > 30 µM (inactive) | > 30 µM (inactive) | > 30 µM (inactive) | > 30 µM (inactive) | > 30 µM (inactive) | > 30 µM (inactive) | > 30 µM (inactive) | > 30 µM (inactive) | > 30 µM (inactive) | > 30 µM (inactive) | > 30 µM (inactive) | > 30 µM (inactive)
COCCN1CCN(Cc2ccc(-c3n[nH]c4c3C(=O)c3c(NC(=O)NN5CCOCC5)cccc3-4)cc2)CC1 [RGB-286638] | > 30 µM (inactive) | > 30 µM (inactive) | > 30 µM (inactive) | > 30 µM (inactive) | 0.37 µM (active) | > 30 µM (inactive) | > 30 µM (inactive) | 2.18 µM | > 30 µM (inactive) | > 30 µM (inactive) | > 30 µM (inactive) | > 30 µM (inactive)
C=CCN(/C=C1/C(=O)O[C@H](COC)[C@@]2(C)C1=C(O)C(=O)C1=C2[C@H](OC(C)=O)C[C@]2(C)C(=O)CC[C@@H]12)CC=C [SONOLISIB] | > 30 µM (inactive) | > 30 µM (inactive) | > 30 µM (inactive) | > 30 µM (inactive) | > 30 µM (inactive) | > 30 µM (inactive) | > 30 µM (inactive) | > 30 µM (inactive) | > 30 µM (inactive) | > 30 µM (inactive) | > 30 µM (inactive) | > 30 µM (inactive)
